From patent US20070264194A1, “Peptides That Bind To Atherosclerotic Lesions” (The Scripps Research Institute, priority 2001, published 2007)
Entries after “also recorded” stand apart in the source; their conditions may differ. No end group written: not given here.

Key:
[1] = tested on: HUVEC endothelial cells; assay: Peptide binding assay, HUVEC; type: cell-based, human; details: serial peptide concentrations, biotinylated synthetic peptides
Protocol: (§1) Human umbilical cord venous endothelial cells (HUVEC) and EGM™ culture medium were from Clonetics, Walkersville, Md. Cells were cultivated in EGM with 5% fetal bovine serum (FBS) in flasks coated with 0.2% gelatin. The bEND.3 cells (ATCC) were cultured in Dulbecco's minimum essential medium (DMEM) (Invitrogen, Carlsbad, Calif.) supplemented with 10% FBS and 2 mM L-glutamine. The HT1080 cells were from ATCC and cultured in DMEM supplemented with 10% FBS, 2 mM L- glutamine, 1.5 g/L sodium bicarbonate, and 0.1 mM NEAA (Non-essential amino acids, Invitrogen, Carlsbad, Calif.). The ECV304 were from ATCC and cultured in DMEM, 10% FBS.
(§2) Analysis of synthetic peptide binding to cells was performed in 96 well plates. Cells (10^5) were plated into each well, incubated overnight then briefly fixed with cold ethanol for 10 seconds. Serial concentrations of peptide in 100 μl PBS were added and incubated at room temperature with gentle shaking for four hours. The wells were washed three times with PBS and reaction developed using strepavidin-peroxidase substrate (Vector, Burlingame, Calif.). The reactions were quantified at 405 nm in a plate reader (Molecular Devices, Sunnyvale, Calif.). In the inhibition assay, TIMP-2 protein was included with the peptide in the initial incubation.

[2] = tested on: fibroblast line HT1080; assay: Peptide binding assay, HT1080; type: cell-based; details: not shown
Protocol: as §1, §2

[3] = tested on: ECV304; assay: Peptide binding assay, ECV304; type: cell-based; details: not shown
Protocol: as §1, §2

[4] = tested on: TIMP-2 binding site on the surface of endothelial cells; assay: Inhibition of peptide binding by TIMP-2 protein; type: cell-based; details: purified TIMP-2 protein 0.05 μM, peptide 0.5 μM
Protocol: as §2

[5] = tested on: human atherosclerotic lesions; assay: Biotinylated peptide binding to human vessel specimens
Protocol: The atherosclerotic regions of human vessels were similarly dissected and pinned on to the dissecting pan. These tissues were then incubated with refolded biotinylated peptides (10.0 μg/ml) overnight at 4° C. The samples were washed three times. An avidin-peroxidase conjugate was used as a second tier probe, and each specimen was visualized with DAB substrate.

[6] = tested on: atherosclerotic lesions; assay: Biotinylated peptide binding in vivo to atherosclerotic lesions (aorta and sections); parameters: species or system atherosclerotic ApoE knockout mice
Protocol: (§3) Immunohistochemical analysis for binding was performed on frozen 5 micron sections of ApoE mouse atherosclerotic aortic valve and aorta on poly-L-lysine coated slides. Biotinylated peptide binding to aortic lesions was detected by strepavidin conjugated peroxidase and was developed with DAB substrate (Vector, Burlingame, Calif.). For endothelial identification, biotinylated […] was used and was detected with Texas red conjugated strepavidin. Phage staining was performed with rabbit anti-phage antibody followed by a fluorescein conjugated goat anti-rabbit antibody. The sections were analyzed by laser scanning confocal microscopy.
(§4) To observe phage or peptide association with atherosclerotic lesions, either phage carrying a homing peptide sequence or a circular synthetic peptide were injected into the mice via the tail vein. […] Fixation was in situ by perfusion with 4% paraformaldehyde. The aortas were dissected under a microscope, and the associated fat tissue cleaned while attached. The aorta was then longitudinally opened from aortic valve to iliac bifurcation. The detached aorta was pinned flat.
To verify that the peptidyl sequence CAPGPSKSC (SEQ ID NO:4) that is expressed on phage protein m was responsible for the selective localization to atherosclerotic lesions, a biotinylated peptide containing the core sequence CAPGPSKSC (SEQ ID NO:4) was synthesized, folded, disulfide bonds constituted by oxidization, and compositional validity established by mass spectrometry. The peptide was injected into atherosclerotic ApoE knockout mice via tail vein, and the tissues were fixed by in vivo perfusion, and aortas were freed by dissection. The binding of biotinylated peptide to the aorta was visualized with strepavidin conjugated peroxidase and DAB substrate.
The association of this peptide to the atherosclerotic lesions was also analyzed on tissue sections. The experiment was replicated in atherosclerotic ApoE mice by infusing CAPGPSKSC (SEQ ID NO:4) peptide and sections of the aorta were prepared, detected with strepavidin-conjugated peroxidase and developed with DAB substrate. Peptide binding to the surface of atherosclerotic lesions (FIG. 2B) was quite evident. […] These areas are likely involved in lesion formation and differ to some degree in their phenotype compared to that of the overlying endothelium.

[7] = tested on: aortic endothelium of ApoE knockout mice; assay: Phage binding to aortic valves/endothelium (immunohistochemistry, confocal microscopy); type: in vivo
Protocol: as §3, §4

[8] = non-diabetic insulin resistant monkeys; cited from earlier work
[9] = sections of aorta, atherosclerotic ApoE mice

Molecule	peptide binding to endothelial cells (absorbance at 405 nm) [1]	peptide binding to HT1080 cells [2]	peptide binding to ECV304 [3]	effect of TIMP-2 protein on peptide binding to cells [4]	other results
CYNRSDGMC (A synthetic sequence from a combinatorial phage display library.) [SEQ ID NO:464, TIMP-2 homologous peptide]	dose dependent binding	dose dependent binding	dose dependent binding	inhibits binding; also recorded: competitively inhibited	–
CNHRYMQMC (A synthetic sequence from a combinatorial phage display library.) [SEQ ID NO:344, Eo3-114]	dose dependent binding	dose dependent binding	dose dependent binding	inhibits binding; also recorded: competitively inhibited	–
CAPGPSKSC (not fully specified (bridges); cysteine pairing not given here) [SEQ ID NO:4]	–	–	–	–	peptide binding to atherosclerotic lesion in human arterial specimen ([5]; biotinylated peptide 10.0 μg/ml on luminal surface, overnight 4° C., avidin-peroxidase/DAB): Bound peptide is apparent; also recorded: preferentially bound to the atherosclerotic plaque; peptide binding to non-atherosclerotic arterial samples or veins ([5]; human vascular samples, biotinylated peptide): no observable binding; peptide binding to lesions of the aorta ([6]; biotinylated synthetic peptide via tail vein, atherosclerotic ApoE knockout mice, streptavidin-peroxidase/DAB): like that of phage displaying the peptide; also recorded: replicated the CAPGPSKSC (SEQ ID NO:4) phage binding to the lesions; peptide binding to the surface of atherosclerotic lesions, tissue sections ([6]; sections of aorta after infusion of peptide, atherosclerotic ApoE mice): quite evident; pattern of peptide binding within the lesion, tissue sections [6, 9]: most intense in the endothelium overlying the atherosclerotic lesion; also recorded: bind more to the endothelium at the periphery of the lesions and less to the central aspect of the lesions; peptide signal outside the lesions, tissue sections [6, 9]: no substantial signal was evident elsewhere
CNQRHQMSC (A synthetic sequence from a combinatorial phage display library.) [SEQ ID NO:336, Eo3-112]	dose dependent binding	dose dependent binding	dose dependent binding	inhibits binding; also recorded: competitively inhibited	selectivity of localization for atherosclerotic lesion endothelium [7]: associates with a molecule present on both atherosclerotic and normal endothelial surfaces; also recorded: not entirely selective for atherosclerotic lesion endothelium
Cc1cc(SCc2sc(-c3ccc(C(F)(F)F)cc3)nc2C)ccc1OCC(=O)O [GW501516]	–	–	–	–	increase of HDL-C [8]: 80%; increase of apoA-I [8]: 43%; triglyceride, LDL-C and insulin levels [8]: lowered
